Test results published in article PMC8896685 (PLoS ONE, 2022).
Numbered stars: 1 amine (or outer) side, 2 acyl side, 3 side chain; on linkers, the order of the positions; unused ones are H or OH. Square brackets hold non-standard residues; d marks the D form. Side chains are listed from the residue outwards. Peptide text beside a SMILES is read from it. * marks the point of attachment. C18 diacid = O=C(O)CCCCCCCCCCCCCCCCC(=O)*; γGlu = O=C(O)[C@H](CCC(=O)[*:2])N[*:1]; Desaminohistidyl = O=C(CCc1c[nH]cn1)*; Ac4c = NC1(C(=O)O)CCC1; AEEA = NCCOCCOCC(=O)O; Aib = CC(C)(N)C(=O)O

How the values were obtained:
[1] = system: DIO mice; test: Subchronic effect on body weight, body composition and food intake in DIO mice; format: in vivo, mouse
Text: Male C57Bl/6J mice were purchased from Jackson Lab (Bar Harbour, ME) or Taconic, (Denmark). Male Sprague Dawley rats were purchased from Taconic (Denmark). Lean animals were fed regular chow diet (Altromin 1324, Brogaarden, Denmark). Obese animals were fed a high-fat diet, 45% kcal from fat (D12492, Research Diets, New Brunswick, NJ) from the age of 4–6 weeks in order to obtain a diet induced obese (DIO) phenotype. Animals were housed under temperature and humidity-controlled conditions in a 12:12 hr light:dark cycle (lights on at 6 a.m.). Rats were housed three per cage during high fat feeding and were single housed five weeks prior to study. Mice were single housed, two per cage, with a partitioning wall where possible. All animals had ad libitum access to diet and water, except when fasted prior to experimental procedures. Animals were acclimatized to study conditions (energy expenditure cages, daily mock handling etc) at least one week prior to first dose. […] At the time of study, animals were 20–30 weeks old with a body weight of 45–50 g (DIO mice) or approximately 600 g (DIO rats).
DIO mice received s.c. injections once daily for 4–5 weeks. Animals were dosed at different times of day to allow for assessment of glucose tolerance and other metabolic parameters at same time of day but at different time points in relation to dosing. […] Body composition was assessed in conscious animals by Magnetic Resonance (MR) scanning prior to initiation of treatment and at the end of the treatment period. Steady-state plasma parameters were assessed in non-fasted animals. Additional DIO mice (n = 4) were included for verification of 24-h peptide exposure in steady state. The mice received s.c. doses daily for 2 weeks (13 days) with 3 nmol/kg NN1177; 5 nmol/kg NN1151 or 5 nmol/kg NN1359, where after plasma sampled after t = 5 h (NN1177) or 6 h (NN1151, NN1359), 10 h (all co-agonists) and 24 h (all co-agonists) post-dosing was analysed for exposure.
Analogues were tested for subchronic effect in two different set-ups. […] The Cmax and Cmin animals were included in separate treatment groups and evaluated head-to-head for glucose tolerance and additional metabolic parameters at the end of the treatment period. […] IPGTT was performed as described above, but additionally blood was sampled from vena facialis of conscious animals at t = 210 min relative to the administration of glucose for exposure analysis.
IPGTT was performed as described above.
All in vivo data are presented as mean ±SEM. […] For the comparison of NN1177, NN1151 and NN1359 on glucose tolerance, vehicle-subtracted values were used to enable comparison across studies.

[2] = target: T1, Rat GCGR (Rattus norvegicus, UniProt P30082); test: Receptor binding, SPA competitive binding assay; conditions: SPA competitive binding on BHK cell membranes, [125I]-glucagon tracer, 1% species specific plasma, 2 h 30°C; value (95% CI)
T1 construct: a plasmid encoding either the glucagon receptor or the GLP-1 receptor from the relevant species; expressed in transfected cells
T1 sequence (P30082 27-485): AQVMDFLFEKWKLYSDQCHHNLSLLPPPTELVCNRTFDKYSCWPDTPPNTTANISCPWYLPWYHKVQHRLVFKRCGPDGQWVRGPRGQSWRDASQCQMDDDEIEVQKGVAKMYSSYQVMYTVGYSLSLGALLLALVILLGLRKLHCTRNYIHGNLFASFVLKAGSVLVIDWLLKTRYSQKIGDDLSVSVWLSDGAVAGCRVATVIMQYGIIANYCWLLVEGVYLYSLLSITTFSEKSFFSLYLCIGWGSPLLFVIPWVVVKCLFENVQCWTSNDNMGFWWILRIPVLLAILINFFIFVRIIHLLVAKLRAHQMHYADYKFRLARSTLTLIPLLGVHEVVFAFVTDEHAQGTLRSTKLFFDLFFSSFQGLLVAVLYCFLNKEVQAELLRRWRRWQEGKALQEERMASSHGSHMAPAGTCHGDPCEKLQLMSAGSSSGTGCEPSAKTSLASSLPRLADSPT
Method: (§1) The binding assay was performed on cell membranes in the presence of 1% (v/v) species-specific heparin-treated pooled plasma (Bioreclamation IVT, Westbury, NY) diluted in assay buffer (50 mM HEPES supplemented with 5 mM EGTA, 5 mM MgCl2, and 0.005% (v/v) Tween 20, pH7.4). […] Cells stably expressing an individual receptor of interest were grown at 5% CO2, 37°C in DMEM (supplemented with 10% FCS, 0.5 mg/ml G418 and 0.3 mg/ml hygromycin). Membrane preparations were made from cells harvested at approximately 80% confluence, washed and homogenized in 20 mM HEPES with 0.1 mM EDTA, pH 7.4. Protein concentration was determined, and the membranes were stored at -80°C until use. The membrane binding assay was performed in a 96-well OptiPlate (PerkinElmer) in a total volume of 200 μl. Test compounds were dissolved in 80% DMSO and further diluted in assay buffer. 50 μl of diluted plasma was added to the assay plate wells followed by addition of test compounds (25 μl), cell membranes (50 μl, 0.06 mg/ml), SPA beads (20 mg/ml in assay buffer) and radioligand (60,000 cpm/well, corresponding to 0.06 nM; 2200 Ci/mmol. Each assay plate was incubated for 2 h at 30°C, centrifuged at 1500 rpm for 10 minutes and counted in a TopCount NXT instrument (PerkinElmer).
(§2) For the receptor binding assays, logIC50 values were calculated using non-linear regression analysis. The error estimation was reported as the 95% confidence interval. […] The calculations were performed in GraphPad Prism 6.4 (GraphPad, San Diego, CA) and error estimation was expressed as the 95% confidence interval. […] Averages, error estimation, ratios and plasma shifts were all calculated on logIC50 or logEC50 values and transformed to the anti-log values for reporting purposes.

[3] = target: Human GLP-1R (Homo sapiens, UniProt P43220); test: Receptor binding, SPA competitive binding assay; conditions: for IC50: SPA competitive binding on BHK cell membranes, [125I]-GLP-1(7–36)-NH2 tracer, 1% species specific plasma, 2 h 30°C, value (95% CI)
Human GLP-1R, sequence (P43220 24-463): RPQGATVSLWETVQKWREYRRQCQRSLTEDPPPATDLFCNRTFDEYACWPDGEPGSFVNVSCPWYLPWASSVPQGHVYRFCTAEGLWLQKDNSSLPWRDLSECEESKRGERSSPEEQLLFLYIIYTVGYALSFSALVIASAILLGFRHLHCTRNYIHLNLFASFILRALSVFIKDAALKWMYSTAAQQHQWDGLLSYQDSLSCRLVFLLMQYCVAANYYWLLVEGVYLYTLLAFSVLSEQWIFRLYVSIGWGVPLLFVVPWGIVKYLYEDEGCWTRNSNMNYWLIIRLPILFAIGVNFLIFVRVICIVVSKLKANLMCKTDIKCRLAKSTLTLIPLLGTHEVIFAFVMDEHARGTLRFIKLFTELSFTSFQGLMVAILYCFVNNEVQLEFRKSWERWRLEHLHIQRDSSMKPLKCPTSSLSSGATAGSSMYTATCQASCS
Method: as §1, §2

[4] = target: T2, Human GCGR (Homo sapiens, UniProt P47871); test: Receptor binding, SPA competitive binding assay; conditions: SPA competitive binding on BHK cell membranes, [125I]-glucagon tracer, 1% species specific plasma, 2 h 30°C; value (95% CI)
T2 construct: a plasmid encoding either the glucagon receptor or the GLP-1 receptor from the relevant species; expressed in transfected cells
T2 sequence (P47871 26-477): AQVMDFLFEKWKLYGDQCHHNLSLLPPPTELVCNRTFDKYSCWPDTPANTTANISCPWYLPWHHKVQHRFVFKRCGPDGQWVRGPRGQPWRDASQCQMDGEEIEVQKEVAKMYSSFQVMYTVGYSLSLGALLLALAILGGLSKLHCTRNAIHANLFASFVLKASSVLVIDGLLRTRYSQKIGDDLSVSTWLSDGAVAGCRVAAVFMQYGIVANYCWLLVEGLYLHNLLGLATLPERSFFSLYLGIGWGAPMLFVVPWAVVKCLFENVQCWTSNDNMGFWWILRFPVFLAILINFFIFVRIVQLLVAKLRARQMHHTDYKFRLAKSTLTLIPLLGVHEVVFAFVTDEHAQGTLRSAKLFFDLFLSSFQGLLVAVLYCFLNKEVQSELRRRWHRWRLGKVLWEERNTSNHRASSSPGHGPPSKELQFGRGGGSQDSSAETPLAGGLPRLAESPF
Method: as §1, §2

[5] = in vivo; conditions: rat, iv
Method: Compound exposure was measured by Luminescence Oxygen Channeling Immunoassay (LOCI). […] The three reactants were combined with the analyte and formed a two-sited immuno-complex. Illumination of the complex released singlet oxygen […] from the donor beads. They were channeled into the acceptor beads and triggered a chemiluminescence response which was measured in an EnVision plate reader (PerkinElmer). The amount of light was proportional to the concentration of the analyte. As calibrators, a dilution line of the relevant analyte in rat/mouse plasma was included.
At t=0, 5 min, 10 min, 30 min, 2 h, 4 h, 8 h, 12 h, 24 h, 32 h, 48 h, 56 h, and 72 h post dosing, plasma was sampled from the sublingual plexus for analysis of plasma exposure measured by LOCI.
Plasma concentration-time profiles were analysed using non-compartmental analysis (NCA) using Phoenix WinNonlin Professional 6.3 (Pharsight, Mountain View, CA, US). Calculations were performed using full concentration-time profile values or sparse sampling concentration-time values as appropriate.

| IC50 [2] [pM] | IC50 [3] [pM] | Binding affinity to GLP-1 receptors relative to glucagon receptors ([3]; across human, mouse and rat receptor binding assays, 1% plasma) | IC50 [4] [pM] | half-life [5] [h] | SMILES | Body weight reduction ([1]; 5 nmol/kg s.c. once daily, 4–5 weeks, p<0.001) | Body weight reduction ([1]; 3–5 nmol/kg s.c. once daily, 5 weeks) | Body weight loss ([1]; 1–30 nmol/kg s.c. once daily, 4 weeks, plateau during last weeks) | Effect on body weight ([1]; 1 nmol/kg s.c. once daily, 4 weeks) | Effect on body weight / tolerated weight loss ([1]; 10 and 30 nmol/kg s.c. once daily, maximum ethically tolerated weight loss reached) |
| --- | --- | --- | --- | --- | --- | --- | --- | --- | --- | --- |
| – | – | – | – | – | CC(C)C[C@H](NC(=O)[C@H](CC(C)C)NC(=O)[C@H](Cc1c[nH]c2ccccc12)NC(=O)[C@H](CCC(N)=O)NC(=O)[C@@H](NC(=O)[C@H](Cc1ccccc1)NC(=O)[C@H](CCC(=O)O)NC(=O)[C@H](CCCNC(=N)N)NC(=O)[C@H](C)NC(=O)[C@H](C)NC(=O)[C@H](CCCNC(=N)N)NC(=O)[C@H](CO)NC(=O)[C@H](CC(=O)O)NC(=O)[C@H](CC(C)C)NC(=O)[C@H](Cc1ccc(O)cc1)NC(=O)[C@H](CCCCN)NC(=O)[C@H](CO)NC(=O)[C@H](CC(C)C)NC(=O)[C@H](CC(=O)O)NC(=O)[C@H](CO)NC(=O)[C@@H](NC(=O)[C@H](Cc1ccccc1)NC(=O)[C@@H](NC(=O)CNC(=O)[C@H](CCC(=O)O)NC(=O)C(C)(C)NC(=O)[C@@H](N)Cc1c[nH]cn1)[C@@H](C)O)[C@@H](C)O)C(C)C)C(=O)N[C@@H](CC(N)=O)C(=O)N[C@@H](CCCCNC(=O)CC[C@H](NC(=O)CC[C@H](NC(=O)COCCOCCNC(=O)COCCOCCNC(=O)CC[C@H](NC(=O)CCCCCCCCCCCCCCCCC(=O)O)C(=O)O)C(=O)O)C(=O)O)C(N)=O [GLP-1 reference] (H-H[Aib]EGTFTSDLSKYLDSRAAREFVQWLLNK([γGlu-γGlu-AEEA-AEEA-γGlu-C18 diacid])-NH2) | 10%-17% | – | – | – | – |
| 300 | 640 | two-to four-fold | 2540 | 8 | CC(C)C[C@H](NC(=O)[C@H](Cc1ccc(O)cc1)NC(=O)[C@H](CCCCN)NC(=O)[C@H](CO)NC(=O)[C@H](CC(C)C)NC(=O)[C@H](CC(=O)O)NC(=O)[C@H](CO)NC(=O)[C@@H](NC(=O)[C@H](Cc1ccccc1)NC(=O)[C@@H](NC(=O)CNC(=O)[C@H](CCC(N)=O)NC(=O)C(C)(C)NC(=O)[C@@H](N)Cc1c[nH]cn1)[C@@H](C)O)[C@@H](C)O)C(=O)N[C@@H](CCC(=O)O)C(=O)N[C@@H](CO)C(=O)N[C@@H](CCCCN)C(=O)N[C@@H](CCCNC(=N)N)C(=O)N[C@@H](C)C(=O)N[C@@H](CCCNC(=N)N)C(=O)N[C@@H](CCC(=O)O)C(=O)N[C@@H](Cc1ccccc1)C(=O)N[C@H](C(=O)N[C@@H](CCC(N)=O)C(=O)N[C@@H](Cc1c[nH]c2ccccc12)C(=O)N[C@@H](CC(C)C)C(=O)N[C@@H](CC(C)C)C(=O)N[C@@H](CCCCNC(=O)CC[C@H](NC(=O)CC[C@H](NC(=O)[C@H](CO)NC(=O)[C@H](CCC(=O)O)NC(=O)[C@H](CO)NC(=O)CC[C@H](NC(=O)CC[C@H](NC(=O)CCCCCCCCCCCCCCCCC(=O)O)C(=O)O)C(=O)O)C(=O)O)C(=O)O)C(=O)N[C@H](C(N)=O)[C@@H](C)O)C(C)C [NN1177] (H-H[Aib]QGTFTSDLSKYLESKRAREFVQWLLK([γGlu-γGlu-Ser-Glu-Ser-γGlu-γGlu-C18 diacid])T-NH2) | – | 22–33% | – | – | – |
| 6290 | 840 | – | 7540 | 11 | CC[C@H](C)[C@H](NC(=O)[C@H](Cc1ccccc1)NC(=O)[C@H](CCC(=O)O)NC(=O)[C@H](CCCNC(=N)N)NC(=O)[C@H](C)NC(=O)[C@H](C)NC(=O)[C@H](CCC(N)=O)NC(=O)[C@H](CCC(=O)O)NC(=O)[C@H](CCC(=O)O)NC(=O)[C@H](CC(C)C)NC(=O)[C@H](Cc1ccc(O)cc1)NC(=O)[C@H](CCCCN)NC(=O)[C@H](CO)NC(=O)[C@@H](NC(=O)[C@H](CC(=O)O)NC(=O)[C@H](CO)NC(=O)[C@@H](NC(=O)[C@H](Cc1ccccc1)NC(=O)[C@@H](NC(=O)CNC(=O)[C@H](Cc1c[nH]cn1)NC(=O)C(C)(C)NC(=O)CCc1c[nH]cn1)[C@@H](C)O)[C@@H](C)O)C(C)C)C(=O)N[C@@H](C)C(=O)N[C@@H](Cc1c[nH]c2ccccc12)C(=O)N[C@@H](CC(C)C)C(=O)N[C@@H](CC(C)C)C(=O)N[C@@H](CCCCNC(=O)COCCOCCNC(=O)COCCOCCNC(=O)CC[C@H](NC(=O)CC[C@H](NC(=O)CCCCCCCCCCCCCCCCC(=O)O)C(=O)O)C(=O)O)C(=O)N[C@H](C(N)=O)[C@@H](C)O [NN1359] (Desaminohistidyl-[Aib]HGTFTSDVSKYLEEQAAREFIAWLLK([AEEA-AEEA-γGlu-γGlu-C18 diacid])T-NH2) | – | – | 10–30% | – | – |

| SMILES | IC50 [2] [pM] | IC50 [3] [pM] | Binding affinity to GLP-1 receptors relative to glucagon receptors ([3]; across human, mouse and rat receptor binding assays, 1% plasma) | IC50 [4] [pM] | half-life [5] [h] | Body weight reduction ([1]; 5 nmol/kg s.c. once daily, 4–5 weeks, p<0.001) | Body weight reduction ([1]; 3–5 nmol/kg s.c. once daily, 5 weeks) | Body weight loss ([1]; 1–30 nmol/kg s.c. once daily, 4 weeks, plateau during last weeks) | Effect on body weight ([1]; 1 nmol/kg s.c. once daily, 4 weeks) | Effect on body weight / tolerated weight loss ([1]; 10 and 30 nmol/kg s.c. once daily, maximum ethically tolerated weight loss reached) |
| --- | --- | --- | --- | --- | --- | --- | --- | --- | --- | --- |
| CC(C)C[C@H](NC(=O)[C@H](CC(=O)O)NC(=O)[C@H](CC(C)C)NC(=O)[C@H](Cc1ccc(O)cc1)NC(=O)[C@H](CCCCN)NC(=O)[C@H](CO)NC(=O)[C@H](CC(C)C)NC(=O)[C@H](CC(=O)O)NC(=O)[C@H](CO)NC(=O)[C@@H](NC(=O)[C@H](Cc1ccccc1)NC(=O)[C@@H](NC(=O)CNC(=O)[C@H](CCC(N)=O)NC(=O)C1(NC(=O)[C@@H](N)Cc2c[nH]cn2)CCC1)[C@@H](C)O)[C@@H](C)O)C(=O)N[C@@H](CCCNC(=N)N)C(=O)N[C@@H](CCCNC(=N)N)C(=O)N[C@@H](C)C(=O)N[C@@H](CCCNC(=N)N)C(=O)N[C@@H](CC(=O)O)C(=O)N[C@@H](Cc1ccccc1)C(=O)N[C@H](C(=O)N[C@@H](CCC(N)=O)C(=O)N[C@@H](Cc1c[nH]c2ccccc12)C(=O)N[C@@H](CC(C)C)C(=O)N[C@@H](CC(C)C)C(=O)N[C@@H](CCCCNC(=O)CC[C@H](NC(=O)CC[C@H](NC(=O)COCCOCCNC(=O)COCCOCCNC(=O)CC[C@H](NC(=O)CC[C@H](NC(=O)CCCCCCCCCCCCCCCCC(=O)O)C(=O)O)C(=O)O)C(=O)O)C(=O)O)C(=O)N[C@H](C(N)=O)[C@@H](C)O)C(C)C [NN1151] (H-H[Ac4c]QGTFTSDLSKYLDLRRARDFVQWLLK([γGlu-γGlu-AEEA-AEEA-γGlu-γGlu-C18 diacid])T-NH2) | 270 | 1520 | – | 810 | 4 | – | – | – | No effect | majority of mice had to be terminated prematurely |
